For test [1], the target named is Pancreatic elastase (Sus scrofa, UniProt P08419+P00772). The test can be described thus: Inhibition of porcine pancreatic elastase. The format is protein assay.
Test [2] can be described thus: Inhibition of subtilisin BPN.
Test [3] can be described thus: Inhibition of chymotrypsin.
A short description of test [4]: Inhibition of trypsin.

Bridge positions count the residues as written; N and C are the ends. Peptide text beside a SMILES is read from it.

Among the data in ChEMBL document CHEMBL1140630, “Resisting degradation by human elastase: commonality of design features shared by 'canonical' plant and bacterial macrocyclic protease inhibitor scaffolds” (Bioorg Med Chem, 2007) are IC50 and Ki values, retold here.

Turning to `CCCC(=O)N[C@@H](C)C(=O)N[C@H](C(=O)N[C@@H]1C(=O)N[C@@H](CC(C)C)C(=O)N[C@@H]2CC[C@H](O)N(C2=O)[C@@H](C(C)O)C(=O)N[C@@H](Cc2ccc(O)c(Cl)c2)C(=O)N[C@@H](C(C)C)C(=O)O[C@H]1C)[C@@H](C)O` (stereo not given in full) [SCYPTOLIN A], the IC50 in test [1] came to 160 nM.

As to `CSCC[C@@H]1NC(=O)[C@@H](NC(=O)[C@H](C)NC(=O)[C@@H](N)Cc2ccccc2)[C@@H](C)OC(=O)C[C@@H]2NC(=O)[C@H](COC(=O)C[C@@H](C(=O)N[C@@H](CCC(=O)O)C(=O)O)NC(=O)[C@H](CO)NC2=O)NC(=O)[C@@H]2CCCN2C(=O)[C@H](Cc2ccc(O)cc2)NC(=O)[C@H](CCCNC(=N)N)NC1=O` [MARINOSTATIN] (H-FATMRYPSDSDE-OH; ester 3-9, 8-11), the results for the Ki in test [2] and in test [3] were 1.5 nM and 300 nM, respectively.

`CC(C)C[C@@H](NC(=O)[C@H](O)COS(=O)(=O)O)C(=O)N[C@@H]1C(=O)N[C@@H](CCCNC(=N)N)C(=O)N[C@H]2CC[C@@H](O)N(C2=O)[C@@H](CC(C)C)C(=O)N(C)[C@@H](Cc2ccc(O)cc2)C(=O)N[C@@H](C(C)C)C(=O)O[C@@H]1C` returned an inhibition constant Ki in test [4] of 9 nM.

For the compound `C/C=C1\NC(=O)[C@H]2NC(=O)[C@@H](NC(=O)C(C)C)CCCNC(=O)Nc3cc(O)c(O)cc3C[C@@H](C(=O)N[C@@H](C(C)C)C(=O)O[C@H]2C)N(C)C(=O)[C@H](Cc2ccccc2)N2C(=O)[C@H](CC[C@H]2O)NC1=O`, the IC50 in test [1] is 260 nM.

What is called IC50 is the concentration at which inhibition is half-maximal. By Ki is commonly meant the equilibrium dissociation constant of an inhibitor or competing ligand from its target.
